pIC50, pKd: −log10 of the molar value.
Tests used:
[1] = test system: ERK phosphorylation in AGS cells; test: Inhibition of ERK phosphorylation in AGS cells (HTRF method); assay type: cell-based; conditions: Homo sapiens, 1 h incubation with compound, phosphorylated ERK/total ERK ratio
Procedure: In the experiment, the inhibitory effect of the compound represented by formula I on the KRAS target was evaluated by assessing the inhibitory effect of the compound on ERK phosphorylation in cells and based on the IC50.
AGS cells (Nanjing Cobioer, CBP60476) were cultured in an RPMI1640 (Hyclone, SH30809.01) complete culture medium containing 10% fetal bovine serum. On the first day of the experiment, the AGS cells were seeded into a 96-well plate with a complete culture medium at a density of 40,000 cells/well, with each well containing 190 µL of a cell suspension. The plate was incubated overnight in a cell incubator at 37 °C with 5% CO2.
The next day, the test compound, serially diluted in a complete culture medium, was added at 10 µL/well. The final concentrations of the compound were 9 concentration points obtained by 5-fold serial dilution from 10 µM. A blank control containing 0.5% DMSO was set. The plate was incubated in a cell incubator at 37 °C with 5% CO2 for 1 h. […]
On the third day, the fluorescence values at an excitation wavelength of 337 nm and emission wavelengths of 665 nm and 620 nm were obtained using an ENVISION multimode microplate reader (PerkinElmer, ENVISION).
The IC50 value for the inhibitory activity of the compound was calculated using Graphpad Prism software based on the compound concentration and the phosphorylated ERK/total ERK ratio. […]

AGS cells = test: Inhibition of 3D proliferation of AGS cells (CellTiter-Glo 3D); assay type: cell-based; conditions: Homo sapiens, 120 h incubation
Procedure: (§1) The inhibitory effect of the compound represented by formula I on the KRAS target was evaluated by assessing the inhibitory effect of the compound represented by formula I on the 3D proliferation of GP2d and AGS cells.
(§2) AGS cells (Nanjing Cobioer, CBP60476) were cultured in a complete culture medium, namely an RPMI1640 medium (Hyclone, SH30809.01) containing 10% fetal bovine serum (Corning, 35-076-CV). On the first day of the experiment, the AGS cells were seeded into a 96-well low-adsorption plate (Corning, CLS7007-24EA) with a complete culture medium at a density of 1000 cells/well, with each well containing 90 µL of a cell suspension. The plate was centrifuged at 2000 rpm for 5 min at room temperature and then incubated overnight in a cell incubator at 37 °C with 5% CO2.
(§3) The next day, the test compound, serially diluted in a complete culture medium, was added at 10 µL/well. The final concentrations of the compound for GP2d cells were 9 concentration points obtained by 3-fold serial dilution from 1 µM, and the final concentrations of the compound for AGS cells were 9 concentration points obtained by 3-fold serial dilution from 10 µM. A blank control containing 0.5% DMSO was set for both types of cells. The plates were incubated in a cell incubator at 37 °C with 5% CO2 for 120 h. […] The luminescence signal values were obtained using a multimode microplate reader (PerkinElmer, ENVISION). […]

GP2d cells = test: Inhibition of 3D proliferation of GP2d cells (CellTiter-Glo 3D); assay type: cell-based; conditions: 120 h incubation
Procedure: as §1
as §2, with “GP2d” for “AGS”, “CBP60010)” for “CBP60476)”, “a DMEM/high glucose culture” for “an RPMI1640”, “SH30243.01)” for “SH30809.01)”
as §3, with “cells.” for “cells. The plates were incubated in a cell incubator at 37 °C with 5% CO2 for 120 h.”

[2] = biological target: KRAS protein subtype G12D (Homo sapiens, UniProt P01116, G12D); test: Affinity for KRAS protein subtype G12D by SPR method (Biacore 8K); assay type: binding; conditions: biotinylated Avi-KRAS-G12D, single-cycle kinetic mode, 1:1 model
KRAS protein subtype G12D, sequence (P01116 1-188 isoform P01116-2 G12D): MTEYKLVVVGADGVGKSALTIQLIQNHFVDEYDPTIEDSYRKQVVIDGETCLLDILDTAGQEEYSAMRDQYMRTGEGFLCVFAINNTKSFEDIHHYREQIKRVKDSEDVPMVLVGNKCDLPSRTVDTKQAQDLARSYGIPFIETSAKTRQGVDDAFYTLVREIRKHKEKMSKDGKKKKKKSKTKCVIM
Procedure: (§4) Biotinylated Avi-KRAS-WT or Avi-KRAS-G12D was diluted to 20 µg/mL with a 1× HBS-P+ (Cat. # BR1006-71) buffer containing 100 mM MgCl2 and then allowed to flow through channel 2 of an SA (Cat. # BR1005-31) biosensor chip for 420 s to obtain a coupling level of approximately 5000-7000 RU. Then samples of the compound were injected sequentially in descending order for 120 s, followed by 720 s of dissociation. The testing was performed using a single-cycle kinetic mode. Reaction signals were detected in real time using a Biacore 8K instrument to obtain association and dissociation curves. After the testing was finished, data analysis was performed using Biacore 8K evaluation software. Data fitting was performed using a 1:1 model, and affinity data were obtained.

KRAS protein subtype WT = KRAS protein subtype WT (Homo sapiens, UniProt P01116); test: Affinity for KRAS protein subtype WT by SPR method (Biacore 8K); assay type: binding; conditions: biotinylated Avi-KRAS-WT, single-cycle kinetic mode, 1:1 model
KRAS protein subtype WT, sequence (P01116 1-188 isoform P01116-2): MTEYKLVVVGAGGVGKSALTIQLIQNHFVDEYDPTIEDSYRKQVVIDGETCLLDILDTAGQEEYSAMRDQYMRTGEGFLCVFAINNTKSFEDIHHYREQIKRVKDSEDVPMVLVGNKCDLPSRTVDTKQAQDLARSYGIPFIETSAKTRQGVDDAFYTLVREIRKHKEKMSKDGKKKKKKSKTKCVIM
Procedure: as §4

CCc1c(F)ccc2cc(O)cc(-c3nc4c5c(nc(OC[C@@]67CCCN6C[C@H](F)C7)nc5c3F)N3C[C@H]5CC[C@H](N5)[C@H]3CO4)c12 [Compound represented by formula I, 5-Ethyl-6-fluoro-4-((5aS,6S,9R)-1-fluoro-12-(((2R,7aS)-2-fluorotetrahydro-1H-pyrrolizin-7a(5H)-yl)methoxy)-5a,6,7,8,9,10-hexahydro-5H-4-oxa-3,10a,11,13,14-pentaaza-6,9-methanonaphtho[1,8-ab]heptalen-2-yl)naphthalen-2-ol]
pIC50 [1]: 9.40 | pIC50 (AGS cells): 8.24 | pIC50 (GP2d cells): 9.05 | pKd [2]: 10.52 | pKd (KRAS protein subtype WT): 8.81

Reference: EP4563151A1, “PHARMACEUTICAL COMPOSITION COMPRISING KRAS G12D INHIBITOR” (Jiangsu Hengrui Pharmaceuticals Co., Ltd., priority 2022, dated 2024)
